Reference: patent publication US20260083851A1 (AVILAR THERAPEUTICS, INC., priority 2022, published 2026)

The compounds below were run against T1, ASGP receptor (biotinylated ASGPR) (Homo sapiens, UniProt P07306). Settings: SPR, Biacore 8K, 25° C.; Table 1A; read-out: ASGPR KD.
T1 construct: biotin (biotinylated)
T1 sequence (P07306 1-291): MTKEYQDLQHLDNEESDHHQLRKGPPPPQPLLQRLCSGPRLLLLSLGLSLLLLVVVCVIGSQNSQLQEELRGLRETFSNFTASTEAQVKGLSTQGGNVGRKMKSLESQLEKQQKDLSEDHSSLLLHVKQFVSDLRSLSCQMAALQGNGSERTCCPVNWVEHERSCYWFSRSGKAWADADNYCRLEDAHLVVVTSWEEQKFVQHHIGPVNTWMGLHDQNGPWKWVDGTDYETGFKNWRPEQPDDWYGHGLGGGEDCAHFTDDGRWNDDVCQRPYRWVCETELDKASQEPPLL
Format: binding
OC[C@H]1O[C@H](c2ccccc2)[C@H](Nc2nccc(C(F)(F)F)n2)[C@@H](O)[C@H]1O [A96, (2R,3R,4R,5R,6R)-2-(hydroxymethyl)-6-phenyl-5-((4-(trifluoromethyl)pyrimidin-2-yl)amino)tetrahydro-2H-pyran-3,4-diol] showed a Kd of less than 10 µM. OC[C@H]1CC[C@H](Nc2cncc(C(F)(F)F)n2)[C@@H](O)[C@H]1O [A65, (1R,2S,3R,6S)-3-(hydroxymethyl)-6-((6-(trifluoromethyl)pyrazin-2-yl)amino)cyclohexane-1,2-diol] was tested, and the Kd was less than 10 µM. O=C(NC[C@H]1OC[C@H](Nc2cncc(C(F)(F)F)n2)[C@@H](O)[C@H]1O)c1cnc2[nH]cnc2c1 [A79, N-(((2R,3R,4R,5S)-3,4-dihydroxy-5-((6-(trifluoromethyl)pyrazin-2-yl)amino)tetrahydro-2H-pyran-2-yl)methyl)-3H-imidazo[4,5-b]pyridine-6-carboxamide] was tested, and the Kd was less than 10 µM. O=C(NC[C@H]1OC[C@H](Nc2cncc(C(F)(F)F)n2)[C@@H](O)[C@H]1O)c1ccc(-c2ccccc2)cn1 [A67, N-(((2R,3R,4R,5S)-3,4-dihydroxy-5-((6-(trifluoromethyl)pyrazin-2-yl)amino)tetrahydro-2H-pyran-2-yl)methyl)-5-phenylpicolinamide] gave a Kd of less than 10 µM. Compound O=C(O)c1ccc(C(=O)NC[C@H]2OC[C@H](Nc3cncc(C(F)(F)F)n3)[C@@H](O)[C@H]2O)cc1 [A34, 4-((((2R,3R,4R,5S)-3,4-dihydroxy-5-((6-(trifluoromethyl)pyrazin-2-yl)amino)tetrahydro-2H-pyran-2-yl)methyl)carbamoyl)benzoic acid] has a Kd of less than 10 µM. O=C(NC[C@H]1OC[C@H](Nc2cncc(C(F)(F)F)n2)[C@@H](O)[C@H]1O)C1C[C@@H]2CC[C@H]1C2 (stereo partly drawn) [A18, (1S,4R)—N-(((2R,3R,4R,5S)-3,4-dihydroxy-5-((6-(trifluoromethyl)pyrazin-2-yl)amino)tetrahydro-2H-pyran-2-yl)methyl)bicyclo[2.2.1]heptane-2-carboxamide] gave a Kd of less than 10 µM. For O=C(NC[C@H]1OC[C@H](Nc2cncc(C(F)(F)F)n2)[C@@H](O)[C@H]1O)c1ncco1 [A50], the Kd was less than 10 µM. O=C(NC[C@H]1OC[C@H](Nc2cncc(C(F)(F)F)n2)[C@@H](O)[C@H]1O)c1ccc2c(n1)CCNC2 [A77, N-(((2R,3R,4R,5S)-3,4-dihydroxy-5-((6-(trifluoromethyl)pyrazin-2-yl)amino)tetrahydro-2H-pyran-2-yl)methyl)-5,6,7,8-tetrahydro-1,6-naphthyridine-2-carboxamide] gave a Kd of less than 10 µM. O=C(NC[C@H]1OC[C@H](Nc2cncc(C(F)(F)F)n2)[C@@H](O)[C@H]1O)c1ncc2ccccc2n1 [A81, N-(((2R,3R,4R,5S)-3,4-dihydroxy-5-((6-(trifluoromethyl)pyrazin-2-yl)amino)tetrahydro-2H-pyran-2-yl)methyl)quinazoline-2-carboxamide] showed a Kd of less than 10 µM. For O=C(NC[C@H]1OC[C@H](Nc2cncc(C(F)(F)F)n2)[C@@H](O)[C@H]1O)c1cnc2ccccc2n1 [A71, N-(((2R,3R,4R,5S)-3,4-dihydroxy-5-((6-(trifluoromethyl)pyrazin-2-yl)amino)tetrahydro-2H-pyran-2-yl)methyl)quinoxaline-2-carboxamide], the Kd was less than 10 µM. For O=C(NC[C@H]1OC[C@H](Nc2cncc(C(F)(F)F)n2)[C@@H](O)[C@H]1O)c1cncnc1 [A25, N-(((2R,3R,4R,5S)-3,4-dihydroxy-5-((6-(trifluoromethyl)pyrazin-2-yl)amino)tetrahydro-2H-pyran-2-yl)methyl)pyrimidine-5-carboxamide], the Kd was less than 10 µM.

Same assay, conditions: SPR, Biacore 8K, 25° C.; Table 1B; read-out: ASGPR Kd
OC[C@H]1OC[C@H](Nc2cccc(Br)n2)[C@@H](O)[C@H]1O [A153, (2R,3R,4R,5S)-5-((6-bromopyridin-2-yl)amino)-2-(hydroxymethyl)tetrahydro-2H-pyran-3,4-diol] was tested, and the Kd was less than 10 µM. OC[C@H]1OC[C@H](Sc2cccc(C(F)(F)F)n2)[C@@H](O)[C@H]1O [A161, (2R,3R,4S,5S)-2-(hydroxymethyl)-5-((6-(trifluoromethyl)pyridin-2-yl)thio)tetrahydro-2H-pyran-3,4-diol] gave a Kd of less than 10 µM.

Same assay, conditions: SPR, Biacore 8K, 25° C.; Table 1C; read-out: ASGPR KD
O[C@@H]1[C@H](O)[C@@H](Oc2cncc(C(F)(F)F)n2)CO[C@@H]1COc1ccc(Br)c(F)c1 [A210, (2R,3R,4S,5S)-2-((4-bromo-3-fluorophenoxy)methyl)-5-((6-(trifluoromethyl)pyrazin-2-yl)oxy)tetrahydro-2H-pyran-3,4-diol] was tested, and the Kd was less than 10 µM. In the case of O=C(O)c1ccc(-c2ccc(OC[C@H]3OC[C@H](Oc4cccc(C(F)(F)F)n4)[C@@H](O)[C@H]3O)nn2)cc1 [A255], the Kd is reported as less than 10 µM. With COC(=O)c1ccc(OC[C@H]2O[C@H](C)[C@H](O)[C@H](O)[C@H]2Oc2cccc(C(F)(F)F)n2)nn1 [A315] the Kd was less than 10 µM. For CN1CC2CN(C[C@H]3OC[C@H](Oc4cccc(C(F)(F)F)n4)[C@@H](O)[C@H]3O)CCN2C1=O (stereo partly shown) [A302], the Kd was less than 10 µM. With O[C@@H]1[C@H](O)[C@@H](Oc2cccc(C(F)(F)F)n2)[C@@H](c2ccccc2)O[C@@H]1C(F)F [A330] the Kd was less than 10 µM. For O[C@@H]1[C@H](O)[C@@H](Oc2cccc(C(F)(F)F)n2)CO[C@@H]1CN1CCN(c2cnccn2)CC1 [Compound A248], the Kd was less than 10 µM. COC(=O)c1ccc(C#C[C@H]2O[C@H](C)[C@H](O)[C@H](O)[C@H]2Oc2cccc(C(F)(F)F)n2)nn1 [A321] gave a Kd of less than 10 µM. Compound O[C@@H]1[C@H](O)[C@@H](Nc2cncc(C(F)(F)F)n2)CO[C@@H]1COc1ccc(-c2ccccc2)cc1 [A202, (2R,3R,4R,5S)-2-(([1,1′-biphenyl]-4-yloxy)methyl)-5-((6-(trifluoromethyl)pyrazin-2-yl)amino)tetrahydro-2H-pyran-3,4-diol] has a Kd of less than 10 µM. O[C@@H]1[C@H](O)[C@@H](Oc2cccc(C(F)(F)F)n2)CO[C@@H]1COc1cccnc1 [A301] showed a Kd of less than 10 µM. With O=C(O)c1ccc(OC[C@H]2OC[C@H](Oc3cccc(C(F)(F)F)n3)[C@@H](O)[C@H]2O)nn1 [A246] the Kd was less than 10 µM. O=C1CCCN1C[C@H]1OC[C@H](Nc2cccc(C(F)(F)F)n2)[C@@H](O)[C@H]1O [A285] was tested, and the Kd was less than 10 µM. Work on O=C1c2ncccc2CN1C[C@H]1OC[C@H](Oc2cccc(C(F)(F)F)n2)[C@@H](O)[C@H]1O [A263] yielded a Kd of less than 10 µM. In the case of C[C@H]1O[C@H](c2ccc3c(c2)CNC3)[C@H](Oc2cccc(C(F)(F)F)n2)[C@@H](O)[C@H]1O [A341], the Kd is reported as less than 10 µM. For C#C[C@H]1OC[C@H](Oc2cccc(C(F)(F)F)n2)[C@@H](O)[C@H]1O [A219, (2R,3R,4S,5S)-2-ethynyl-5-((6-(trifluoromethyl)pyridin-2-yl)oxy)tetrahydro-2H-pyran-3,4-diol], the Kd was less than 10 µM. Work on OC[C@H]1OC[C@H](Nc2cccc(OC(F)F)n2)[C@@H](O)[C@H]1O [A185, (2R,3R,4R,5S)-5-((6-(difluoromethoxy)pyridin-2-yl)amino)-2-(hydroxymethyl)tetrahydro-2H-pyran-3,4-diol] yielded a Kd of less than 10 µM. Compound NCCOCCOCC(=O)NC[C@H]1OC[C@H](Oc2cccc(C(F)(F)F)n2)[C@@H](O)[C@H]1O [A326] has a Kd of less than 10 µM.

Same assay, conditions: SPR, Biacore 8K, 25° C.; Table 1D, numeric bound; read-out: ASGPR KD
For O=C(OCc1ccccc1)N1C[C@H](O)[C@H](O)[C@@H](S(=O)(=O)c2cncc(C(F)(F)F)n2)C1 [A358], the Kd was greater than 30 µM. O=C(OCc1ccccc1)N1C[C@H](O)[C@H](O)[C@@H]([S@+]([O-])c2cccc(C(F)(F)F)n2)C1 [A355] showed a Kd greater than 30 µM. For O=C(OCc1ccccc1)N1CC(Nc2cn[nH]c2)[C@@H](O)[C@@H](O)C1 (stereo partly shown) [A371], the Kd was greater than 30 µM.

Same assay, conditions: SPR, Biacore 8K, 25° C.; Table 1D; read-out: ASGPR KD
For O[C@@H]1[C@@H](Nc2cncc(C(F)(F)F)n2)CN(Cc2ccccc2)C[C@@H]1O [A373], the Kd was less than 10 µM. For O=C(c1ccccc1)N1C[C@H](Nc2cncc(C(F)(F)F)n2)[C@@H](O)[C@@H](O)C1 [A422], the Kd was less than 10 µM. Nc1ccc(OC[C@H]2OC[C@H](Nc3cncc(C(F)(F)F)n3)[C@@H](O)[C@H]2O)nn1 [A418] was tested, and the Kd was less than 10 µM. O=C(c1ccc(C(F)(F)F)cc1F)N1C[C@H](Nc2cncc(C(F)(F)F)n2)[C@@H](O)[C@@H](O)C1 [A379] gave a Kd of less than 10 µM. O=C(O)COCCOCC(=O)C1C[C@H](Nc2cncc(C(F)(F)F)n2)[C@@H](O)[C@@H](O)C1 (stereo partly shown) [A381] gave a Kd of less than 10 µM. O[C@@H]1[C@@H](Nc2cncc(C(F)(F)F)n2)CN(c2ccc(C(F)(F)F)cn2)C[C@@H]1O [A377] gave a Kd of less than 10 µM. O=C(c1ccc(Cc2ccccc2)cc1)N1C[C@H](Nc2cncc(C(F)(F)F)n2)[C@@H](O)[C@@H](O)C1 [A364] was tested, and the Kd was less than 10 µM. For O=C(OCc1ccccc1)N1C[C@H](Oc2cccc(C(F)(F)F)n2)[C@@H](O)[C@@H](O)C1 [A386], the Kd was less than 10 µM. With O=C(OCc1ccccc1)N1C[C@H](O)[C@H](O)[C@@H]([S@@+]([O-])c2cccc(C(F)(F)F)n2)C1 [A354] the Kd was 10 to 100 µM.

Same assay, conditions: SPR, Biacore 8K, 25° C.; Table 1E, numeric bound; read-out: ASGPR KD
With C[C@H]1O[C@H](CO)[C@H](Oc2cncc(C(F)(F)F)n2)[C@@H](O)[C@H]1O [A436] the Kd was greater than 30 µM.

Same assay, conditions: SPR, Biacore 8K, 25° C.; Table 1E; read-out: ASGPR KD
For C[C@H]1O[C@H](COc2cccc(C(F)(F)F)n2)[C@H](Oc2cnccn2)[C@@H](O)[C@H]1O [A450], the Kd was less than 10 µM. C[C@H]1O[C@H](COc2cnc(C(=O)O)cn2)[C@H](Oc2cccc(C(F)(F)F)n2)[C@@H](O)[C@H]1O [A443] gave a Kd of less than 10 µM. Compound C[C@H]1O[C@H](COc2cnccn2)[C@H](Oc2cncc(C(F)(F)F)n2)[C@@H](O)[C@H]1O [A434] has a Kd of less than 10 µM.

Same assay, conditions: SPR; Table 2; read-out: ASGPR SPR Binding KD
CC1(C)C(=O)c2ccc(-c3cnc(N4CCN5C(=O)N(CCCNC(=O)c6ccc7c(c6)C(F)(F)c6cc(C(=O)NC[C@H]8OC[C@H](Nc9cncc(C(F)(F)F)n9)[C@@H](O)[C@H]8O)ccc6-7)C[C@@H]5C4)nc3)nc2N1Cc1cccnc1C#N [compound 20] was tested, and the Kd was less than 0.1 µM.
